Measured values as given in patent publication US7820829B2, “Bisbenzisoselenazolonyl derivatives having antineoplastic, anti-inflammatory and antithrombotic activities as well as their use” (Peking University, priority 2001, dated 2010).

Experiments:
HL-60 = experiment: E003 in combination with other antineoplastic agents on growth of cancer cell; format: cell-based, human; details: HL-60, 24 h
[1] = tested on: xylene-induced ear oedema; experiment: Xylene-induced ear oedema in mice; format: in vivo; details: oral; for Inhibiting rate (%) (to aspirin): relative to aspirin 200 mg/kg; for Inhibiting rate (%) (to indomethacin): relative to indomethacin 22 mg/kg
Description: The anti-inflammatory effects of the test compounds E001, E002 and E 003 were evaluated in xylene-induced ear oedema in mice. The mice were randomized into a no-treatment control group, three reference groups and three treatment groups. There are 10 animals in each group. The test compounds, saline and reference drugs (indomethacin, Aspirin and Ebselen) were orally administered respectively. Ear oedema was induced by topical administration of xylene ([…] per ear) to the inner surface of the right ear after 1 hour of the administration. After 2 hours, the mice were killed. The change in the ear's weight with diameter of 8 mm was measured with a precision micrometer. The inhibiting rate of each compound to the xylene-induced ear oedema was calculated in accordance with the ear weight and the results were listed in Table 7.
The procedure described in Example 8 was repeated. And the results of the experiment are shown by the following table: […]

thrombosis = experiment: Electrically induced thrombosis in rat neck artery (OT value); format: in vivo; details: male SD rats, oral 30 mg/kg, 1 hour after administration; electricity 3 mA, 180 s
Description: Male SD rats (300-400 g) were randomized into a no-treatment control group (0.25% CMC), an ASA reference group (0.25% CMC, a few Tween-80) and three treatment groups (the compounds E001, E002 and E003). There are 5 animals in each group. The inventive compounds and reference drugs were orally administered respectively in amount of 30 mg/kg. The animals were anesthetized with urethane after 1 hour of the administration. The neck artery was separated surgically and OT value was measured (the stimulating conditions: electricity, 3 mA; time, 180 s).

mice = details: cited from earlier work
Lewis lung cancer = Lewis lung cancer transplanted in C57 mice; format: in vivo, C57 mouse; details: 2 mg/kg
Description: Lewis lung cancer tissue was resuscitated and subcultured by standard procedure. A piece of Lewis lung cancer was transplanted into the subcutaneous space on the back of each C 57 mouse for inoculation and growth. The Lewis lung cancer cells were dispersed in saline to form a cell suspension of 10^6/ml. 0.2-0.3 ml of the suspension were inoculated into each C57 mouse Mice were randomized into three groups, 10 for each group. In the treatment group, the mice were injected i.p. with […] in amount of 50 mg/kg; in reference group, DDp, 2 mg/kg; and in the negative control group (solvent group), 0.5% CMC-Na. The total volume for every group is the same. […] was administered by i.p. from the second day of transplantation for 3 days until the mice were sacrificed. The C57 mice were disinfected with 70% alcohol. The Lewis lung cancer tissue was removed, photographed and weighted. Then, the subcutaneous tumors were fixed by formaldehyde for further analysis.

With `COc1cccc2c1C(=O)c1c(O)c3c(c(O)c1C2=O)C[C@@](O)(C(=O)CO)C[C@@H]3O[C@H]1C[C@H](N)[C@H](O)[C@H](C)O1` [Adriamycin] as the molecule, how does the inhibition at 0.1 µg/mL (HL-60; Homo sapiens, Adriamycin alone 0.1 mg/L, read-out: Inhibition rate) read?
The inhibition at 0.1 µg/mL was -7 ± 0.7%.

What does the source list for `CC(=O)OC[C@H]1OC(OC(C)=O)[C@H](n2[se]c3ccccc3c2=O)[C@@H](OC(C)=O)[C@@H]1OC(C)=O` (stereo partly drawn) [Compound E001, 2-(1,3,4,6-tetra-O-acetyl-2-deoxy-D-glucopyranosyl)-(1,2)-benzisoselenazol-3(2H)-one]?
Ear oedema % ([1]; Example 8, mice, 50 mg/kg): 4.81%; Inhibiting rate (%) (to aspirin) ([1]; Example 8, mice, 50 mg/kg): 54.75 (to aspirin) %; Inhibiting rate (%) (to indomethacin) ([1]; Example 8, mice, 50 mg/kg): 75.81 (to indomethacin) %; Average OT value (thrombosis): 561.2 s

With `CC(=O)Oc1ccccc1C(=O)O` [Aspirin] as the molecule, how does the Ear oedema % ([1]; Example 8, mice, 200 mg/kg) read?
The Ear oedema % was 10.63%.

What about the Ear oedema % ([1]; Example 11, mice, 200 mg/kg) of the same molecule?
Its Ear oedema % is 10.27%.

And the “Average OT value” (thrombosis)?
The value was 588.2 s.

With `O=c1c2ccccc2[se]n1-c1ccccc1` [Ebselen, 2-phenyl-(1,2)-benzisoselenazol-3(2H)-on] as the molecule, how does the Ear oedema % ([1]; Example 8, mice, 50 mg/kg) read?
Its Ear oedema % is 6.22%.

What about the “Inhibiting rate (%) (to aspirin)” value ([1]; Example 8, mice, 50 mg/kg) of the same molecule?
The value was 41.48 (to aspirin) %.

And the “Inhibiting rate (%) (to indomethacin)” value ([1]; Example 8, mice, 50 mg/kg)?
Its value is 68.72 (to indomethacin) %.

What about the LD50 (mice) of the same molecule?
The LD50 was over 6810 mg/kg.

With `N.N.[Cl][Pt][Cl]` [DDP, Cisplatin] as the molecule, how does the “tumor volume, average” value (Lewis lung cancer) read?
The value was 473 mm^3.

And the Inhibition rate (HL-60; Cisplatin alone 0.5 μmol/L)?
Its Inhibition rate is 0.067 ± 0.014.

And the Inhibition rate (HL-60; Cisplatin alone 5 μmol/L)?
The Inhibition rate was 0.12 ± 0.032.

With `COc1ccc2c(c1)c(CC(=O)O)c(C)n2C(=O)c1ccc(Cl)cc1` [Indomethacin] as the molecule, how does the Ear oedema % ([1]; Example 8, mice, 22 mg/kg) read?
Its Ear oedema % is 19.89%.

And the Ear oedema % ([1]; Example 11, mice, 22 mg/kg)?
Its Ear oedema % is 19.12%.

For `CC(=O)O[C@H]1C(=O)[C@@]2(C)[C@H]([C@H](OC(=O)c3ccccc3)[C@]3(O)C[C@H](OC(=O)[C@H](O)[C@@H](NC(=O)c4ccccc4)c4ccccc4)C(C)=C1C3(C)C)[C@]1(OC(C)=O)CO[C@@H]1C[C@@H]2O` [Taxol], which inhibition at 0.001 µg/mL (HL-60; Homo sapiens, Taxol alone 0.001 mg/L, read-out: Inhibition rate) is on record?
Its inhibition at 0.001 µg/mL is 2 ± 1%.

What about the inhibition at 0.01 µg/mL (HL-60; Homo sapiens, Taxol alone 0.01 mg/L, read-out: Inhibition rate) of the same molecule?
The inhibition at 0.01 µg/mL was 27 ± 7.9%.
